Converted amounts (≈) assume the structure as drawn. Read-outs that look alike come from different tables or passages of the source.
Columns and labels:
[1] = test system: P. falciparum Dd2 (resistant strain); assay: Antiplasmodial in vitro drug sensitivity assay (HRP2-ELISA); format: cell-based; conditions: Plasmodium falciparum
Method: (§1) Two laboratory strains of P. falciparum, the chloroquine sensitive 3D7 and the multi-resistant Dd2 were kept in continuous culture as previously described (Trager and Jensen 1976). In brief, parasites were kept in complete culture medium (RPMI 1640, 25 mM HEPES, 2 mM L-glutamine, 50 μg/ml gentamicin and 0.5% w/v AlbuMAX) at 37° C., 5% CO2 and 5% oxygen at 5% hematocrit with daily change of medium. Synchronization was performed with sorbitol twice a week (Lambros and Vanderberg 1979).
(§2) In Vitro Drug Sensitivity Assay
(§3) All compounds were dissolved in DMSO at stock dilutions between 25 and 100 mM; the reference drug chloroquine diphosphate (MW: 515.86) was diluted in distilled water and DMSO, respectively. […] Antiplasmodial activity of the different compounds was tested in a drug sensitivity assay against the two laboratory strains using the histidine-rich protein 2 (HRP2) assay as described previously (Noedl 2005). In brief: 96 well plates were pre-coated with the different compounds in a threefold dilution before ring stage parasites were added in complete culture medium at a hematocrit of 1.5% and a parasitemia of 0.05% in a total volume of 225 μl per well. After three days of incubation plates were frozen until analyzed by HRP2-ELISA. All compounds were evaluated in duplicate in at least two independent experiments.

[2] = test system: P. falciparum 3D7 (sensitive strain); assay: as above; format: cell-based; conditions: Plasmodium falciparum
Method: as §1, §2, §3

[3] = test system: zebrafish larvae of the AB wildtype line; assay: Zebrafish embryo toxicity, maximum tolerated concentration (MTC), AB line; format: in vivo
Method: (§4) Zebrafish Embryo Toxicity
(§5) The maximum tolerated concentration (MTC) was determined on zebrafish larvae of the AB wildtype line and the TLF wild type line. Larvae were placed into a 96-well plate (one larva per well) and incubated in a solution at different concentrations (100, 50, 25, 10, 1 μM) of ChA, ChA-Epo2, ChB or ChB-Epo at two days post fertilization (dpf) for AB and in a solution at different concentrations of ChA (100, 50 μM) ChA-Epo2 (25, 10, 1 μM), ChB (100, 50 μM) or ChB-Epo (100, 50, 25 μM) at one dpf for TLF. Five zebrafish larvae were used per condition. The incubated embryos were kept in compound solutions at 28° C. until five dpf and monitored daily by microscopy. The final MTC result was recorded at five dpf. Compound solutions were prepared in the larvae medium Danieau's. Additionally a solution of 0.5% DMSO in Danieau's was used as vehicle control and Danieau's alone as a negative control.

[4] = test system: zebrafish larvae of the TLF wild type line; assay: Zebrafish embryo toxicity, maximum tolerated concentration (MTC), TLF line; format: in vivo; conditions: at five dpf, incubation started at one dpf
Method: as §4, §5

S. aureus Newman = assay: Antimicrobial assay, MIC by microbroth dilution; format: cell-based; conditions: Staphylococcus aureus, NEWMAN; 16 h, cation-adjusted Muller-Hinton broth
Method: (§6) Bacterial strains used in susceptibility assays (minimum inhibitory concentrations, MIC) were either part of our internal strain collection or were purchased form the German Collection of Microorganisms and Cell Cultures (DSMZ). All compounds were prepared as DMSO stocks and MIC values were determined in standard microbroth dilution assays. Overnight cultures of bacteria were diluted in cation-adjusted Muller-Hinton broth (BBL™, BD) and were adjusted to approximately 10^5 cfu/mL. […] Bacteria were grown in the presence of the derivatives in serial dilution for 16 h at their optimal growth temperature. MIC values were determined according to CLSI guidelines (antibiotic concentration at which no visible bacterial growth is observed).

Gram-positive bacteria = assay: Antimicrobial assay, MIC against a range of Gram-positive bacteria (Table 5); format: cell-based; conditions: read-out: MIC
Method: as §6

Plasmodium falciparum = conditions: starting parasitemia levels of 0.01, 0.05, 0.5 and […]; cited from earlier work
[5] = Determination of water solubility, Method 2 (HPLC-MS standard curve, saturated solution in water); format: physicochemical; conditions: summary of Table 1, method not given
Method: Determination of Water Solubility
A standard curve with 10 calibration points of the compound of interest is plotted using HPLC-MS and serial dilution. The dilutions and stock solutions were prepared in THF as a solvent. Following the measurements, a saturated solution in water of the compound in study was also measured. Upon plotting the standard curve using the peak areas of the MS peaks, the water samples were plotted along the curve and the solubility was then calculated.

C[C@@H]1C(=O)O[C@@H](C)/C=C/C=C\[C@@H](C)[C@@H]2C=C[C@@H]3C[C@@]4(C)O[C@H]4[C@@H](C)C3C2/C(O)=C(\Cl)C1=O (stereo partly shown) [ChB-Epo]
IC50 ([1]; P. falciparum Dd2 (resistant strain), read-out: IC50 against P. falciparum Dd2): 182 nM | IC50 ([2]; P. falciparum 3D7 (sensitive strain), read-out: IC50 against P. falciparum 3D7): 158 nM | Observations noted on fish larvae ([3]; 50 μM, AB line, at five dpf, incubation started at two dpf): died | Observations noted on fish larvae ([3]; 100 μM, AB line, at five dpf, incubation started at two dpf): died | MTC (maximum tolerated concentration) ([3]; AB line, at five dpf, incubation started at two dpf): 25 µM | Toxicity in zebrafish (MTC), comparison of the epoxide derivatives ([3]; zebrafish, line not named in the sentence (Tables 6 and 7)): less toxic than the chlorotonil A derivative | Observations noted on fish larvae ([4]; 50 μM): slight tail malformation | Observations noted on fish larvae ([4]; 100 μM): tail malformation | MTC (maximum tolerated concentration) [4]: 25 µM | MIC (S. aureus Newman): 0.05 µg/mL (≈ 0.108 µM) | MIC (Gram-positive bacteria; Enterococcus faecalis, E. faecalis 20478): 3.2 µg/mL (≈ 6.94 µM) | MIC (Gram-positive bacteria; Enterococcus faecalis, E. faecalis 29212): > 3.2 µg/mL | MIC (Gram-positive bacteria; Enterococcus faecium, E. faecium 20477): > 3.2 µg/mL | MIC (Gram-positive bacteria; Enterococcus faecium, VRE, E. faecium 17050 (VRE)): 3.2 µg/mL (≈ 6.94 µM) | MIC (Gram-positive bacteria; Micrococcus luteus, M. luteus): 0.1 µg/mL (≈ 0.217 µM) | MIC (Gram-positive bacteria; Mycolicibacterium smegmatis, M. smegmatis): > 3.2 µg/mL | MIC (Gram-positive bacteria; Priestia megaterium, B. megaterium): 0.05 µg/mL (≈ 0.108 µM) | MIC (Gram-positive bacteria; Staphylococcus epidermidis, S. epidermidis 28765): 0.8 µg/mL (≈ 1.74 µM) | MIC (Gram-positive bacteria; Streptococcus pneumoniae, PRSP, S. pneumoniae 11865 (PRSP)): > 32 µg/mL | MIC (Gram-positive bacteria; Streptococcus pneumoniae, S. pneumoniae 20566): 0.8 µg/mL (≈ 1.74 µM)

CCN(CC)CCCC(C)Nc1ccnc2cc(Cl)ccc12 (stereo not shown) [Chloroquine, reference compound]
Inoculum effect: difference in IC50 between lowest and highest parasitemia (Plasmodium falciparum): 5.6 fold | IC50 ([1]; DD2, read-out: IC50 against P. falciparum Dd2): 292 nM | IC50 ([2]; 3D7, read-out: IC50 against P. falciparum 3D7): 7.4 nM

CC1=C[C@@H](C)[C@H]2[C@@H]3C(=O)C(Cl)(Cl)C(=O)[C@H](C)C(=O)O[C@@H](C)/C=C/C=C\[C@@H](C)[C@@H]3C=C[C@@H]2C1 [Chlorotonil A (ChA), Chlorotonil A, reference compound]
water solubility [5]: less than 2 μg/mL

C[C@H]1[C@H](OC(=O)CCC(=O)O)O[C@@H]2O[C@@]3(C)CC[C@H]4[C@H](C)CC[C@@H]1[C@@]24OO3 [artesunate]
Inoculum effect: difference in IC50 between lowest and highest parasitemia (Plasmodium falciparum): 8.8 fold

From US11365201B2, “Chlorotonil derivatives” (HELMHOLTZ-ZENTRUM FÜR INFEKTIONSFORSCHUNG GMBH, priority 2017, dated 2022)
